Results taken from PubChem BioAssay AID1919008 (Molecular Pharmacology Branch, DTP, NCI, 2023).

Tested on: DMS-114 complex spheroids with HUVEC/MSC, growth % test/control
Experiment: Anticancer human tumor DMS-114 cell line growth inhibition [AhR];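 note: spheroids exposed to agents for 7 days before readout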;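 for viability, T/C: 100% = DMSO vehicle control wells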
Conditions: for IC50: curve of first compound; for viability, T/C: stronger effect = lower value
Outline: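 Spheroids combined tumor cells with HUVEC endothelial cells and human MSCs as stroma. AhR antagonists were paired with standard or investigational drugs, each dosed in half-log steps down from near clinical Cmax, or from 10 microM where Cmax was unknown.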

[1] = second compound 0.1 µM, first compound 0.0316 µM
[2] = second compound 0.1 µM, first compound 0.1 µM
[3] = second compound 0.1 µM, first compound 0.316 µM
[4] = second compound 0.1 µM, first compound 1 µM
[5] = second compound 0.1 µM, first compound 3.16 µM
[6] = second compound 0.1 µM, first compound 10 µM
[7] = second compound 0.316 µM, first compound 0.0316 µM
[8] = second compound 0.316 µM, first compound 0.1 µM
[9] = second compound 0.316 µM, first compound 0.316 µM
[10] = second compound 0.316 µM, first compound 1 µM
[11] = second compound 0.316 µM, first compound 3.16 µM
[12] = second compound 0.316 µM, first compound 10 µM
[13] = second compound 1 µM, first compound 0.0316 µM
[14] = second compound 1 µM, first compound 0.1 µM
[15] = second compound 1 µM, first compound 0.316 µM
[16] = second compound 1 µM, first compound 1 µM
[17] = second compound 1 µM, first compound 3.16 µM
[18] = second compound 1 µM, first compound 10 µM
[19] = second compound 3.16 µM, first compound 0.0316 µM
[20] = second compound 3.16 µM, first compound 0.1 µM
[21] = second compound 3.16 µM, first compound 0.316 µM
[22] = second compound 3.16 µM, first compound 1 µM
[23] = second compound 3.16 µM, first compound 3.16 µM
[24] = second compound 3.16 µM, first compound 10 µM
[25] = second compound 10 µM, first compound 0.0316 µM
[26] = second compound 10 µM, first compound 0.1 µM
[27] = second compound 10 µM, first compound 0.316 µM
[28] = second compound 10 µM, first compound 1 µM
[29] = second compound 10 µM, first compound 3.16 µM
[30] = second compound 10 µM, first compound 10 µM

COc1cc(Nc2ncc3c(n2)-c2ccc(Cl)cc2C(c2c(F)cccc2OC)=NC3)ccc1C(=O)O + Cc1cncc(-c2nc(NCCc3c[nH]c4ccccc34)c3ncn(C(C)C)c3n2)c1
IC50 (second compound 0.1 µM): < 31.6 nM | IC50 (second compound 0.316 µM): < 31.6 nM | IC50 (second compound 1 µM): < 31.6 nM | IC50 (second compound 3.16 µM): < 31.6 nM | IC50 (second compound 10 µM): < 31.6 nM | viability, T/C [1]: 34.3% | viability, T/C [2]: 23.1% | viability, T/C [3]: 44.3% | viability, T/C [4]: 53.2% | viability, T/C [5]: 65.4% | viability, T/C [6]: 72.5% | viability, T/C [7]: 28.4% | viability, T/C [8]: 22.3% | viability, T/C [9]: 40.9% | viability, T/C [10]: 62.1% | viability, T/C [11]: 61.6% | viability, T/C [12]: 64.6% | viability, T/C [13]: 30.1% | viability, T/C [14]: 21.3% | viability, T/C [15]: 41.7% | viability, T/C [16]: 66% | viability, T/C [17]: 61.7% | viability, T/C [18]: 70.5% | viability, T/C [19]: 24.5% | viability, T/C [20]: 14.9% | viability, T/C [21]: 36.3% | viability, T/C [22]: 57.2% | viability, T/C [23]: 69.8% | viability, T/C [24]: 63% | viability, T/C [25]: 16.4% | viability, T/C [26]: 8.12% | viability, T/C [27]: 19% | viability, T/C [28]: 34.3% | viability, T/C [29]: 32.4% | viability, T/C [30]: 38.4%

O=C(C=Cn1cnc(-c2cc(C(F)(F)F)cc(C(F)(F)F)c2)n1)NNc1cnccn1 + Cc1cncc(-c2nc(NCCc3c[nH]c4ccccc34)c3ncn(C(C)C)c3n2)c1
IC50 (second compound 0.1 µM): 158 nM | IC50 (second compound 0.316 µM): 175 nM | IC50 (second compound 1 µM): 166 nM | IC50 (second compound 3.16 µM): 166 nM | IC50 (second compound 10 µM): < 9.49 nM | viability, T/C (second compound 0.1 µM, first compound 0.00949 µM): 111% | viability, T/C (second compound 0.1 µM, first compound 0.03 µM): 101% | viability, T/C (second compound 0.1 µM, first compound 0.0949 µM): 61.7% | viability, T/C (second compound 0.1 µM, first compound 0.3 µM): 32.7% | viability, T/C (second compound 0.1 µM, first compound 0.949 µM): 15.1% | viability, T/C (second compound 0.1 µM, first compound 3 µM): 5.4% | viability, T/C (second compound 0.316 µM, first compound 0.00949 µM): 103% | viability, T/C (second compound 0.316 µM, first compound 0.03 µM): 99.8% | viability, T/C (second compound 0.316 µM, first compound 0.0949 µM): 63.5% | viability, T/C (second compound 0.316 µM, first compound 0.3 µM): 36.6% | viability, T/C (second compound 0.316 µM, first compound 0.949 µM): 14.4% | viability, T/C (second compound 0.316 µM, first compound 3 µM): 5.66% | viability, T/C (second compound 1 µM, first compound 0.00949 µM): 110% | viability, T/C (second compound 1 µM, first compound 0.03 µM): 109% | viability, T/C (second compound 1 µM, first compound 0.0949 µM): 65.3% | viability, T/C (second compound 1 µM, first compound 0.3 µM): 31.7% | viability, T/C (second compound 1 µM, first compound 0.949 µM): 13.6% | viability, T/C (second compound 1 µM, first compound 3 µM): 5.72% | viability, T/C (second compound 3.16 µM, first compound 0.00949 µM): 94% | viability, T/C (second compound 3.16 µM, first compound 0.03 µM): 109% | viability, T/C (second compound 3.16 µM, first compound 0.0949 µM): 61.1% | viability, T/C (second compound 3.16 µM, first compound 0.3 µM): 34.5% | viability, T/C (second compound 3.16 µM, first compound 0.949 µM): 15.1% | viability, T/C (second compound 3.16 µM, first compound 3 µM): 5.67% | viability, T/C (second compound 10 µM, first compound 0.00949 µM): 38.6% | viability, T/C (second compound 10 µM, first compound 0.03 µM): 34.2% | viability, T/C (second compound 10 µM, first compound 0.0949 µM): 30.6% | viability, T/C (second compound 10 µM, first compound 0.3 µM): 21.1% | viability, T/C (second compound 10 µM, first compound 0.949 µM): 13.5% | viability, T/C (second compound 10 µM, first compound 3 µM): 7.49%

COc1cc(C2c3cc4c(cc3C(OC3OC5COC(C)OC5C(O)C3O)C3COC(=O)C23)OCO4)cc(OC)c1O (stereo not given) + CC(CO)NC(=O)c1cc(-c2ccc(Cl)cc2)nn(-c2cnn(C)c2)c1=O
IC50 (second compound 0.1 µM): 572 nM | IC50 (second compound 0.316 µM): 469 nM | IC50 (second compound 1 µM): 448 nM | IC50 (second compound 3.16 µM): 431 nM | IC50 (second compound 10 µM): 489 nM | viability, T/C [1]: 87.4% | viability, T/C [2]: 88.4% | viability, T/C [3]: 64.3% | viability, T/C [4]: 34.2% | viability, T/C [5]: 25.8% | viability, T/C [6]: 13.2% | viability, T/C [7]: 95.9% | viability, T/C [8]: 88.3% | viability, T/C [9]: 55% | viability, T/C [10]: 34.3% | viability, T/C [11]: 25.8% | viability, T/C [12]: 13.4% | viability, T/C [13]: 97.7% | viability, T/C [14]: 89.9% | viability, T/C [15]: 56.3% | viability, T/C [16]: 31.4% | viability, T/C [17]: 22.7% | viability, T/C [18]: 14% | viability, T/C [19]: 90.4% | viability, T/C [20]: 94.8% | viability, T/C [21]: 52.8% | viability, T/C [22]: 32.9% | viability, T/C [23]: 23.6% | viability, T/C [24]: 12% | viability, T/C [25]: 94.4% | viability, T/C [26]: 97.7% | viability, T/C [27]: 58% | viability, T/C [28]: 32.9% | viability, T/C [29]: 22.2% | viability, T/C [30]: 12.7%

COc1cc(C2c3cc4c(cc3C(OC3OC5COC(C)OC5C(O)C3O)C3COC(=O)C23)OCO4)cc(OC)c1O (stereo not given) + Cc1ccccc1N=Nc1ccc(NC(=O)c2ccnn2C)c(C)c1
IC50 (second compound 0.1 µM): 1740 nM | IC50 (second compound 0.316 µM): 1760 nM | IC50 (second compound 1 µM): 1470 nM | IC50 (second compound 3.16 µM): 1650 nM | IC50 (second compound 10 µM): 1750 nM | viability, T/C [1]: 99.4% | viability, T/C [2]: 99.1% | viability, T/C [3]: 93.4% | viability, T/C [4]: 59.7% | viability, T/C [5]: 40.4% | viability, T/C [6]: 26.5% | viability, T/C [7]: 105% | viability, T/C [8]: 100% | viability, T/C [9]: 84.4% | viability, T/C [10]: 56.9% | viability, T/C [11]: 43% | viability, T/C [12]: 25.5% | viability, T/C [13]: 97.7% | viability, T/C [14]: 92.4% | viability, T/C [15]: 84.4% | viability, T/C [16]: 52.2% | viability, T/C [17]: 43.6% | viability, T/C [18]: 29.6% | viability, T/C [19]: 100% | viability, T/C [20]: 96.4% | viability, T/C [21]: 81.7% | viability, T/C [22]: 59.4% | viability, T/C [23]: 37.9% | viability, T/C [24]: 26.4% | viability, T/C [25]: 90.7% | viability, T/C [26]: 92.5% | viability, T/C [27]: 82.7% | viability, T/C [28]: 57.6% | viability, T/C [29]: 42.2% | viability, T/C [30]: 27.7%
